Consider 24 compounds from US11420970B1 (NOVARTIS AG, priority 2019, dated 2022).

This assay deals with NSD2 [1-1365] (Homo sapiens (Human), UniProt O96028). In words: LC-MS/MS-based NSD2 enzymatic assay (SAH production). Type of assay: biochemical. The conditions noted are these: NSD2 biochemical activity, class symbols; read-out: NSD2 IC50. How it is done: LC-MS/MS-Based NSD2 Enzymatic Assay
This assay employed LC-MS/MS technology to monitor the SAH production from the NSD2 enzymatic reaction. The enzymatic reaction was performed in white proxiplate plus 384-well microplate (Perkin Elmer). The reaction mixture (10 μL) were composed of 8 nM NSD2 [1-1365], […] SAM (USB, 10601) and 400 nM nucleosome (purified from mouse liver) in reaction buffer (20 mM Tris-HCl, pH at 8.0, 0.01% Tween 20, 10 mM MgCl2, 50 mM NaCl, 1 mM DTT, 1 mM TCEP (pH7.5)). After 90 min incubation at room temperature, 3 μL quenching solution containing 2.5% TFA with 320 nM d4-SAH was added to stop the reaction.
For the inhibition assay, compound solutions were transferred into the wells by Mosquito™ (TTP LabTech). The inhibition assays were carried out by preincubating various concentrations of the inhibitor with 5 uL reaction mixture containing 16 nM NSD2 [1-1365] and 2 uM SAM (USB, 10601) in reaction buffer. After 20 min preincubation, 5 uL solution containing 800 nM nucleosome (purified from mouse liver) in reaction buffer was added to initiate the reaction. The reaction was stopped by 3 μL quenching solution containing 2.5% TFA with 320 nM d4-SAH after 90 min.
The SAH production from the enzymatic assays were monitored by LC-MS/MS on an API 4000 triple quadrupole mass spec with Turbolon Spray (Applied Biosystem) coupled with Prominenece UFLC(Shimazu). Liquid chromatography was performed on a Chromolith FastGradient HPLC column (RP-18e, 25-2 mm, from Merck) at a flow rate of 0.8 ml/min. The column was connected directly to the turbo ion electrospray operating in the positive-ion mode. Mobile phase A is 0.1% FA and 2% methanol in water and mobile phase B is 0.1% FA in ACN. Injection volume was 3 μl and the autosampler was kept at 4 degree. SAH and d4-SAH were simultaneously monitored. Data were acquired and processed by Analyst software.
To quantify the formed SAH, d4-SAH was added as internal standard (IS). A series of SAH (Sigma, A9384) solution at varying concentration (1-500 nM in reaction buffer) was mixed with quenching solution mentioned above. Then LC-MS/MS was carried out on API 4000 LC/MS/MS system to detect both SAH and d4-SAH. The plot of SAH peak area/IS peak area vs SAH concentration was used to generate the normalization factor of SAH. The SAH production from real enzymatic reaction was derived from the standard curve of SAH. The down-limit of our system for the detection of SAH is around 1-2 nM, and the linear range can reach up to 500 nM.

Chain of NSD2 [1-1365] (O96028 whole entry): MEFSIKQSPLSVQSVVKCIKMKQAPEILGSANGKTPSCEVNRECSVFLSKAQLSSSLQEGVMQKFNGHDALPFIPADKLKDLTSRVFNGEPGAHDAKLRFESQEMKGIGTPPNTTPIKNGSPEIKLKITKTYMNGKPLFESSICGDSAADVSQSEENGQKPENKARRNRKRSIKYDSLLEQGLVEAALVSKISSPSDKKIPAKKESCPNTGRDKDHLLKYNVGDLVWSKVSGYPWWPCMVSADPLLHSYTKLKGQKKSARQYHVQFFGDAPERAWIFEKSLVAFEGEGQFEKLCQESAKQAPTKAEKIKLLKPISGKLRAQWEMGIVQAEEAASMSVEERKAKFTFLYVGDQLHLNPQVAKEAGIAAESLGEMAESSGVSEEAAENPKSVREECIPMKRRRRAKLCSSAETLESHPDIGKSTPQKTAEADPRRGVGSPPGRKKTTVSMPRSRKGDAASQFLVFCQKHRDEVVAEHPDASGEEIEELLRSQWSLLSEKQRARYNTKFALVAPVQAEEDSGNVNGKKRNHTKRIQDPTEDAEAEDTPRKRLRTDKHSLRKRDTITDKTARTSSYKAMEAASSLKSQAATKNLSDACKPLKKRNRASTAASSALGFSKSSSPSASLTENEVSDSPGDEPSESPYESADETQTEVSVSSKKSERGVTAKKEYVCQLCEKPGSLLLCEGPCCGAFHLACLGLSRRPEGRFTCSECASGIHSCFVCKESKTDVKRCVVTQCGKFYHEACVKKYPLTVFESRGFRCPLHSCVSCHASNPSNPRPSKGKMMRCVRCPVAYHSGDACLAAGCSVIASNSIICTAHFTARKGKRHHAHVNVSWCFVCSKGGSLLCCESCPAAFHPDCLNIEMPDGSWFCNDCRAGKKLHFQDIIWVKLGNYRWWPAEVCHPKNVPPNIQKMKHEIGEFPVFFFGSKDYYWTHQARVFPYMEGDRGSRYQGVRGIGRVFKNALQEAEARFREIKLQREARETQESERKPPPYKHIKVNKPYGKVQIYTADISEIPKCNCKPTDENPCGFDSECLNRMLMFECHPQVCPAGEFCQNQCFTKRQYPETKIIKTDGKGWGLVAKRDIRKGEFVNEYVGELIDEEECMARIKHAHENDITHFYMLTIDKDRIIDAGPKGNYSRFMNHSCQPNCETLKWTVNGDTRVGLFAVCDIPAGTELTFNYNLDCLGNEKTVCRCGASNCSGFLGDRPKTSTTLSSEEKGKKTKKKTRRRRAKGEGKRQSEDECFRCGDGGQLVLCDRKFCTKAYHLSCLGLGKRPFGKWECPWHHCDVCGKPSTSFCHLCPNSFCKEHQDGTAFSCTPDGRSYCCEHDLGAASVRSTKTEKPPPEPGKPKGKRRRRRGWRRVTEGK

As usually defined, the IC50 is the midpoint of a concentration-inhibition curve. For `Nc1ncnc2c1ncn2Cc1cc(-c2ccc3c(c2)CCO3)ncc1N1CC[C@@H](F)[C@@H](N)C1` [Example 14, 9-((5-((3S,4R)-3-amino-4-fluoropiperidin-1-yl)-2-(2,3-dihydrobenzofuran-5-yl)pyridin-4-yl)methyl)-9H-purin-6-amine], the IC50 was 10 to 1000 nM.
For the compound `COc1ccc(-c2cc(Cn3cnc4c(N)ncnc43)c(N3C[C@H](N)CC(F)(F)C3)cn2)cc1F` [Example 16, (R)-9-((5-(5-amino-3,3-difluoropiperidin-1-yl)-2-(3-fluoro-4-methoxyphenyl)pyridin-4-yl)methyl)-9H-purin-6-amine], the IC50 was 10 to 1000 nM.
As to `N#CC1CCN(c2cnc(-c3ccc(F)c(F)c3)cc2Cn2cnc3c(N)ncnc32)CC1N` (stereo not drawn) [Example 18, 3-amino-1-(4-((6-amino-9H-purin-9-yl)methyl)-6-(3,4-difluorophenyl)pyridin-3-yl)piperidine-4-carbonitrile], the IC50 is over 1000 nM.
Under `COC[C@@]1(N)CCCN(c2cnc(-c3ccc(F)c(Cl)c3)cc2Cn2cnc3c(N)ncnc32)C1` [Example 28, (R)-9-((5-(3-amino-3-(methoxymethyl)piperidin-1-yl)-2-(3-chloro-4-fluorophenyl)pyridin-4-yl)methyl)-9H-purin-6-amine] stands 1 to 10 nM; under `COc1ccc(-c2cc(Cn3cnc4c(N)ncnc43)c(N3CCC[C@](N)(COC4CC4)C3)cn2)cc1F` [Example 31, (R)-9-((5-(3-amino-3-(cyclopropoxymethyl)piperidin-1-yl)-2-(3-fluoro-4-methoxyphenyl)pyridin-4-yl)methyl)-9H-purin-6-amine], 1 to 10 nM; under `COCCC1(N)CCCN(c2cnc(-c3ccc(F)c(F)c3)cc2Cn2cnc3c(N)ncnc32)C1` (stereo not drawn) [Example 60, 9-((5-(3-amino-3-(2-methoxyethyl)piperidin-1-yl)-2-(3,4-difluorophenyl)pyridin-4-yl)methyl)-9H-purin-6-amine], 10 to 1000 nM.
`NC(=O)C[C@@]1(N)CCCN(c2cnc(-c3ccc(F)c(F)c3)cc2Cn2cnc3c(N)ncnc32)C1` [Example 62, (S)-2-(3-amino-1-(4-((6-amino-9H-purin-9-yl)methyl)-6-(3,4-difluorophenyl)pyridin-3-yl)piperidin-3-yl)acetamide]: the IC50 lay in the range of 10 to 1000 nM.
Regarding `CN(C)C(=O)CC1(N)CCCN(c2cnc(-c3ccc(F)c(F)c3)cc2Cn2cnc3c(N)ncc(Cl)c32)C1` (stereo not drawn) [Example 68, 2-(3-amino-1-(4-((4-amino-7-], the IC50 was 10 to 1000 nM.
As for `COC(=O)C[C@@]1(N)CCCN(c2cnc(-c3cccc(F)c3)cc2Cn2cnc3c(N)ncnc32)C1` [Example 73, methyl (S)-2-(3-amino-1-(4-((6-amino-9H-purin-9-yl)methyl)-6-(3-fluorophenyl)pyridin-3-yl)piperidin-3-yl)acetate], the IC50 is 10 to 1000 nM.
On to `Nc1ncnc2c1ncn2Cc1cc(-c2ccc(CNC(=O)CCl)cc2)ncc1N1CCCC(N)(CC(F)F)C1` (stereo not drawn) [Example 75, N-(4-(5-(3-amino-3-(2,2-difluoroethyl)piperidin-1-yl)-4-((6-amino-9H-purin-9-yl)methyl)pyridin-2-yl)benzyl)-2-chloroacetamide], for which the IC50 lay within 10 to 1000 nM.
For `N#CCC1(N)CCCN(c2cnc(-c3ccc(F)c(F)c3)cc2Cn2cnc3c(N)ncnc32)C1` (stereo not drawn) [Example 77, 2-(3-amino-1-(4-((6-amino-9H-purin-9-yl)methyl)-6-(3,4-difluorophenyl)pyridin-3-yl)piperidin-3-yl)acetonitrile], the IC50 was over 1000 nM.
As for `Nc1ncnc2c1ncn2Cc1cc(-c2ccc(F)c(F)c2)ncc1N1CCC[C@](N)(C(=O)NC2CCOCC2)C1` [Example 82, (R)-3-amino-1-(4-((6-amino-9H-purin-9-yl)methyl)-6-(3,4-difluorophenyl)pyridin-3-yl)-N-(tetrahydro-2H-pyran-4-yl)piperidine-3-carboxamide], the IC50 was in the range of 10 to 1000 nM.
As to `Nc1ncnc2c1ncn2Cc1cc(-c2ccc(F)c(F)c2)ncc1N1CCC[C@](N)(C(=O)N2CCCC2)C1` [Example 84, (R)-(3-amino-1-(4-((6-amino-9H-purin-9-yl)methyl)-6-(3,4-difluorophenyl)pyridin-3-yl)piperidin-3-yl)(pyrrolidin-1-yl)methanone], the IC50 lay in the range of 10 to 1000 nM.
Turning to `CC1CCCN1C(=O)C1(N)CCCN(c2cnc(-c3ccc(F)c(F)c3)cc2Cn2cnc3c(N)ncnc32)C1` (stereo not drawn) [Example 88, (3-amino-1-(4-((6-amino-9H-purin-9-yl)methyl)-6-(3,4-difluorophenyl)pyridin-3-yl)piperidin-3-yl)(2-methylpyrrolidin-1-yl)methanone], the IC50 was 10 to 1000 nM.
In the case of `Nc1ncnc2c1ncn2Cc1cc(-c2ccc(F)c(F)c2)ncc1N1CCCC(N)(C(=O)C2CCCC2)C1` (stereo not drawn) [Example 100, (3-amino-1-(4-((6-amino-9H-purin-9-yl)methyl)-6-(3,4-difluorophenyl)pyridin-3-yl)piperidin-3-yl)(cyclopentyl)methanone], the IC50 is 1 to 10 nM.
Regarding `Nc1ncnc2c1ncn2Cc1cc(-c2ccc(F)c(F)c2)ncc1N1CCCC(N)(C(=O)C2CCOC2)C1` (stereo not drawn) [Example 111, (3-amino-1-(4-((6-amino-9H-purin-9-yl)methyl)-6-(3,4-difluorophenyl)pyridin-3-yl)piperidin-3-yl)(tetrahydrofuran-3-yl)methanone], the IC50 is over 1000 nM.
Regarding `CC1(C(=O)C2(N)CCCN(c3cnc(-c4ccc(F)c(F)c4)cc3Cn3cnc4c(N)ncnc43)C2)COC1` (stereo not drawn) [Example 112, (3-amino-1-(4-((6-amino-9H-purin-9-yl)methyl)-6-(3,4-difluorophenyl)pyridin-3-yl)piperidin-3-yl)(3-methyloxetan-3-yl)methanone], the IC50 is over 1000 nM.
As to `COc1c(-c2ccc(F)c(F)c2)ncc(N2CCC[C@](N)([C@H](O)C(F)F)C2)c1Cn1cnc2c(N)ncnc21` [Example 118, (S)-1-((R)-3-amino-1-(4-((6-amino-9H-purin-9-yl)methyl)-6-(3,4-difluorophenyl)-5-methoxypyridin-3-yl)piperidin-3-yl)-2,2-difluoroethan-1-ol], the IC50 is 1 to 10 nM.
Regarding `Nc1ncnc2c1ncn2Cc1cc(-c2cc(F)c(C(F)F)cc2F)ncc1N1CCC[C@](N)([C@H](O)C(F)F)C1` [Example 120, (S)-1-((R)-3-amino-1-(4-((6-amino-9H-purin-9-yl)methyl)-6-(4-(difluoromethyl)-2,5-difluorophenyl)pyridin-3-yl)piperidin-3-yl)-2,2-difluoroethan-1-ol], the IC50 was in the range of 1 to 10 nM.
`Cc1cc(C(F)F)c(F)cc1-c1cc(Cn2cnc3c(N)ncnc32)c(N2CCC[C@](N)([C@@H](O)C(F)F)C2)cn1` [Example 129, (R)-1-((R)-3-amino-1-(4-((6-amino-9H-purin-9-yl)methyl)-6-(4-(difluoromethyl)-5-fluoro-2-methylphenyl)pyridin-3-yl)piperidin-3-yl)-2,2-difluoroethan-1-ol]: the IC50 fell in the range of 1 to 10 nM.
As to `COc1ccc(-c2ncc(N3CCC[C@](N)([C@H](O)C(F)F)C3)c(Cn3cnc4c(N)ncnc43)c2F)c(F)c1` [Example 135, (S)-1-((R)-3-amino-1-(4-((6-amino-9H-purin-9-yl)methyl)-5-fluoro-6-(2-fluoro-4-methoxyphenyl)pyridin-3-yl)piperidin-3-yl)-2,2-difluoroethan-1-ol], the IC50 was in the range of 10 to 1000 nM.
Under `Nc1ncnc2c1ncn2Cc1cc(-c2ccc(C(F)F)cc2F)ncc1N1CCC[C@](N)([C@H](O)C(F)F)C1` [Example 137, (S)-1-((R)-3-amino-1-(4-((6-amino-9H-purin-9-yl)methyl)-6-(4-(difluoromethyl)-2-fluorophenyl)pyridin-3-yl)piperidin-3-yl)-2,2-difluoroethan-1-ol] stands 10 to 1000 nM; under `Cc1cc(C(F)F)ccc1-c1cc(Cn2cnc3c(N)ncnc32)c(N2CCC[C@](N)([C@H](O)C(F)F)C2)cn1` [Example 140, (S)-1-((R)-3-amino-1-(4-((6-amino-9H-purin-9-yl)methyl)-6-(4-(difluoromethyl)-2-methylphenyl)pyridin-3-yl)piperidin-3-yl)-2,2-difluoroethan-1-ol], 10 to 1000 nM.
`Nc1ncnc2c1ncn2Cc1c(N2CCC[C@](N)([C@H](O)C(F)F)C2)cnc(-c2ccc(F)cc2F)c1F` [Example 142, (S)-1-((R)-3-amino-1-(4-((6-amino-9H-purin-9-yl)methyl)-6-(2,4-difluorophenyl)-5-fluoropyridin-3-yl)piperidin-3-yl)-2,2-difluoroethan-1-ol]: the IC50 is 10 to 1000 nM.
